Assay results published in US20060134286A1, “Gallocatechin gallate-containing composition” (Suntory Limited, priority 2002, published 2006).

Tested on: Streptococcus mutans (MT8148R)
Assay: Antibacterial activity against Streptococcus mutans (colony count after 1 hour contact with sample)
Type: cell-based
Settings: final concentration of the sample 1 mg/mL; 37° C. for 1 hour; colonies counted on MS agar medium after 2 days
Procedure: Streptococcus mutans (MT8148R) was cultured in a brain heart infusion medium (BHI, manufactured by Difco) at 37° C. for 18 hours. After collection of the cells by centrifugation, the precipitate was washed three times with a phosphate buffer solution (PBS, pH 6.8). Then the cells were suspended to give an absorbance of 0.5 at 550 nm. Thus, about 2×10^7 colonies per mL (expressed in colony forming unit: CFU) were formed . Next, an equal amount of a previously prepared sample solution was added to the suspension and the resultant mixture was allowed to stand at 37° C. for 1 hour. 0.1 mL of this liquid mixture or the same mixture seriously 10-fold diluted was sowed on a Mitis salivarius agar medium (MS agar medium, manufactured by Difco). After culturing at 37° C. for 2 days, the colonies thus formed were counted. The antibacterial activity was indicated in the logarithm of CFU of test group/CFU of control lot (i.e., the reducing ratio).
The mixing ratio of EGCG to GCG (manufactured by Sigma) was varied so as to adjust the final concentration of the sample to 1 mg/mL and thus the antibacterial activity was examined. […]

Compound	Antibacterial activity (logarithm of CFU of test group/CFU of control lot, the reducing ratio)
O=C(O[C@@H]1Cc2c(O)cc(O)cc2O[C@H]1c1cc(O)c(O)c(O)c1)c1cc(O)c(O)c(O)c1 [GCG, gallocatechin gallate]	−3.17
(−)-epigallocatechin gallate [EGCG]	−3.50
